For one series, the target named is T1, rat NHE-3 (Rattus norvegicus, UniProt P26433).
T1 construct: expressed in transfected cells; host or cells: Opossum kidney (OK) cells (ATCC), electroporated
As to the kind of experiment: Cell-based assay of NHE-3 activity (Pharmacological Test Example 1). To be noted: for IC50: read-out: rat NHE-3 Average pIC50 (converted). The method, then:
Rat NHE-3-mediated Na^+-dependent H^+ antiport was measured using a modification of the pH sensitive dye method originally reported by Tsien (Proc. Natl. Acad. Sci. USA. (1984) 81(23): 7436-7440). Opossum kidney (OK) cells were obtained from the ATCC and propagated per their instructions. The rat NHE-3 gene was introduced into OK cells via electroporation, seeded into 96 well plates and grown overnight. Medium was aspirated from the wells, cells were washed twice with NaCl-HEPES buffer (100 mM NaCl, 50 mM HEPES, 10 mM glucose, 5 mM KCl, 2 mM CaCl2, 1 mM MgCl2, pH 7.4), then incubated for 30 min at room temperature with NH4Cl-HEPES buffer (20 mM NH4Cl, 80 mM NaCl, 50 mM HEPES, 5 mM KCl, 2 mM CaCl2), 1 mM MgCl2, pH 7.4) containing 5 uM BCECF-AM (Invitrogen). Cells were washed twice with Ammonium free, Nat-free HEPES (100 mM choline, 50 mM HEPES, 10 mM glucose, 5 mM KCl, 2 mM CaCl2), 1 mM MgCl2, pH 7.4) and incubated in the same buffer for 10 minutes at room temperature to lower intracellular pH. […] Initial rates were plotted as the average 3-6 replicates, and pIC50 values were estimated using GraphPad Prism.

A short description of series [1]: Determination of compound Cmax and AUC. Conditions: rat; Sprague-Dawley rats, oral gavage, serum 0.5-4 h; actual oral dose (mg/kg) given. The class given is in vivo. The method, then: Sprague-Dawley rats were orally gavaged with test article (2.5 mg/kg) and serum was collected at 0.5, 1, 2 and 4 h. Serum samples were treated with acetonitrile, precipitated proteins removed by centrifugation and supernatants analyzed by LC/MS/MS and compared against a standard curve to determine compound concentration. All compounds were orally dosed at the dosage shown, and pharmacokinetic parameters determined as described in the text.

The mark [2] stands for this setting: OK cells expressing rat NHE-3, 0-30 uM test compound, 5 uM EIPA.

Like-named read-outs stand apart in the source and are kept apart here.

T1 sequence (P26433 29-831): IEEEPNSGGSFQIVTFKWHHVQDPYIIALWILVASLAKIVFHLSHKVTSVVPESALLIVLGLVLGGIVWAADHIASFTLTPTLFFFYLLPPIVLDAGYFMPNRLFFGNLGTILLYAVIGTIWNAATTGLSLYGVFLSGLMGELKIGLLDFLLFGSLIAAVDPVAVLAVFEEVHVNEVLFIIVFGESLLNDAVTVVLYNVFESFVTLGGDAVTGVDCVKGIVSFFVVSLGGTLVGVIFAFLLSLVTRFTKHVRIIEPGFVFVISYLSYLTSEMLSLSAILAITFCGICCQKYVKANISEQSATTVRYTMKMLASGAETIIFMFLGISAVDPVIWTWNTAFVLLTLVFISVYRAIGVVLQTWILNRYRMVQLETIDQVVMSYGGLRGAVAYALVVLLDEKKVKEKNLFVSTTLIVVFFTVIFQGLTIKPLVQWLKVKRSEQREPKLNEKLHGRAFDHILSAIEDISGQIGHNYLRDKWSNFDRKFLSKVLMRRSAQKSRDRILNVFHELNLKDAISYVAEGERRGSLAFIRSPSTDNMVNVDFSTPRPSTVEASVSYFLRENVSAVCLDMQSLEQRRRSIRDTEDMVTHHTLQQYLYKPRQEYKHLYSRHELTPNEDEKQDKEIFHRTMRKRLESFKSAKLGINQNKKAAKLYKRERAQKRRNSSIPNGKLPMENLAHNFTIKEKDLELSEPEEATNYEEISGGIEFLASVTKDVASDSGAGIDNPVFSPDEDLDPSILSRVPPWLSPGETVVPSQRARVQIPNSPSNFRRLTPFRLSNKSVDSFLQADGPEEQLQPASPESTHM

For orientation: AUC means concentration integrated over time. As usually defined, the Cmax is the highest concentration seen after dosing. Regarding `CN1Cc2c(Cl)cc(Cl)cc2C(c2cccc(S(=O)(=O)NCCOCCOCCOCCNC(=O)c3ccc(C(=O)NCCOCCOCCOCCNS(=O)(=O)c4cccc(C5CN(C)Cc6c(Cl)cc(Cl)cc65)c4)cc3)c2)C1` (stereo not shown) [Example 216, N1,N4-bis(2-(2-(2-(2-(3-(6,8-dichloro-2-methyl-1,2,3,4-tetrahydroisoquinolin-4-yl)phenylsulfonamido)ethoxy)ethoxy)ethoxy)ethyl)terephthalamide], on rat NHE-3 (setting [2]), the IC50 is under 100 nM. Also, in series [1], the AUC was under 8.3 ng·h/mL and the peak concentration (Cmax) was under 4 ng/mL.

Take `CN1Cc2c(Cl)cc(Cl)cc2C(c2cccc(S(=O)(=O)NCCOCCOCCOCCOCCOCCOCCOCCOCCOCCOCCNC(=O)CCOCCOCCOCCOCCOCCOCCOCCOCCOCCC(=O)NCCOCCOCCOCCOCCOCCOCCOCCOCCOCCOCCNS(=O)(=O)c3cccc(C4CN(C)Cc5c(Cl)cc(Cl)cc54)c3)c2)C1` (stereo not shown) [Example 217, N1,N31-bis(32-(3-(6,8-dichloro-2-methyl-1,2,3,4-tetrahydroisoquinolin-4-yl)phenylsulfonamido)-3,6,9,12,15,18,21,24,27,30-decaoxadotriacontyl)-4,7,10,13,16,19,22,25,28-nonaoxahentriacontane-1,31-diamide]: on rat NHE-3 (setting [2]), the “rat NHE-3 Average pIC50” value was in the range of 6 to 7. In series [1], the AUC is under 10 ng·h/mL and the Cmax was under 10 ng/mL.

For `CN1Cc2c(Cl)cc(Cl)cc2C(c2cccc(S(=O)(=O)NCCOCCOCCOCCNC(=O)CN(CC(=O)NCCOCCOCCOCCNS(=O)(=O)c3cccc(C4CN(C)Cc5c(Cl)cc(Cl)cc54)c3)CC(=O)NCCOCCOCCOCCNS(=O)(=O)c3cccc(C4CN(C)Cc5c(Cl)cc(Cl)cc54)c3)c2)C1` (stereo not shown) [Example 213, 2,2′,2″-nitrilotris(N-(2-(2-(2-(2-(3-(6,8-dichloro-2-methyl-1,2,3,4-tetrahydroisoquinolin-4-yl)phenylsulfonamido)ethoxy)ethoxy)ethoxy)ethyl)acetamide)], the “rat NHE-3 Average pIC50” value on rat NHE-3 (setting [2]) fell in the range of 6 to 7. In series [1], the area under the curve (AUC) was under 5 ng·h/mL and the peak concentration (Cmax) is under 5 ng/mL.

`CN1Cc2c(Cl)cc(Cl)cc2C(c2ccc(S(=O)(=O)NCC(=O)NCC(=O)NCC(=O)NCCCCNC(=O)CNC(=O)CNC(=O)CNS(=O)(=O)c3ccc(C4CN(C)Cc5c(Cl)cc(Cl)cc54)cc3)cc2)C1` (stereo not shown) [Example 204, N,N′-(butane-1,4-diyl)bis(2-(2-(2-(4-(6,8-dichloro-2-methyl-1,2,3,4-tetrahydroisoquinolin-4-yl)phenylsulfonamido)acetamido)acetamido)acetamide)]: at rat NHE-3 (setting [2]), the “rat NHE-3 Average pIC50” value is listed as over 7. In series [1], this molecule displayed an exposure (AUC) of under 2 ng·h/mL and a Cmax of under 2 ng/mL.

Regarding `CN1Cc2c(Cl)cc(Cl)cc2C(c2ccc(S(=O)(=O)NCCOCCOCCNC(=O)NCCOCCOCCNS(=O)(=O)c3ccc(C4CN(C)Cc5c(Cl)cc(Cl)cc54)cc3)cc2)C1` (stereo not shown) [Example 232, N,N′-(10-oxo-3,6,14,17-tetraoxa-9,11-diazanonadecane-1,19-diyl)bis(4-(6,8-dichloro-2-methyl-1,2,3,4-tetrahydroisoquinolin-4-yl)benzenesulfonamide)], the “rat NHE-3 Average pIC50” value at rat NHE-3 is under 5.0. For the same molecule, in series [1], the AUC is under 2 ng·h/mL and the maximum concentration (Cmax) was under 2 ng/mL.

With `CN1Cc2c(Cl)cc(Cl)cc2C(c2ccc(S(=O)(=O)NCCOCCOCCOCCNC(=O)c3ccc(C(=O)NCCOCCOCCOCCNS(=O)(=O)c4ccc(C5CN(C)Cc6c(Cl)cc(Cl)cc65)cc4)cc3)cc2)C1` (stereo not shown) [Example 233, N1,N4-bis(2-(2-(2-(2-(4-(6,8-dichloro-2-methyl-1,2,3,4-tetrahydroisoquinolin-4-yl)phenylsulfonamido)ethoxy)ethoxy)ethoxy)ethyl)terephthalamide], the “rat NHE-3 Average pIC50” value on rat NHE-3 was under 5.0. Moreover, in series [1], the exposure (AUC) was under 6.8 ng·h/mL and the highest concentration (Cmax) was under 2.6 ng/mL.

In the case of `CN1Cc2c(Cl)cc(Cl)cc2C(c2cccc(S(=O)(=O)NCCOCCOCCOCCNC(=O)c3cccc(C(=O)NCCOCCOCCOCCNS(=O)(=O)c4cccc(C5CN(C)Cc6c(Cl)cc(Cl)cc65)c4)c3)c2)C1` (stereo not shown) [Example 228, N1,N3-bis(2-(2-(2-(2-(3-(6,8-dichloro-2-methyl-1,2,3,4-tetrahydroisoquinolin-4-yl)phenylsulfonamido)ethoxy)ethoxy)ethoxy)-ethyl)isophthalamide], on rat NHE-3 (setting [2]), the “rat NHE-3 Average pIC50” value is listed as 6 to 7. Also, in series [1], the AUC was under 5 ng·h/mL and the Cmax is under 5 ng/mL.

As to `CN1Cc2c(Cl)cc(Cl)cc2[C@H](c2ccc(S(=O)(=O)NCCOCCOCCOCCNC(=O)C(O)C(O)C(=O)NCCOCCOCCOCCNS(=O)(=O)c3ccc([C@@H]4CN(C)Cc5c(Cl)cc(Cl)cc54)cc3)cc2)C1` (single isomer, unassigned) [Example 225, N1,N4-bis(2-(2-(2-(2-(4-((S or R)-6,8-dichloro-2-methyl-1,2,3,4-tetrahydroisoquinolin-4-yl)phenylsulfonamido)ethoxy)ethoxy)ethoxy)ethyl)-2,3-dihydroxysuccinamide], the IC50 at rat NHE-3 (setting [2]) was 100 to 1000 nM. In series [1], the AUC was under 5.3 ng·h/mL and the Cmax is under 3.5 ng/mL.

For the molecule `CN1Cc2c(Cl)cc(Cl)cc2C(c2cccc(S(=O)(=O)NCCOCCOCCOCCNC(=O)NCCCCNC(=O)NCCOCCOCCOCCNS(=O)(=O)c3cccc(C4CN(C)Cc5c(Cl)cc(Cl)cc54)c3)c2)C1` (stereo not shown) [Example 208, N,N′-(13,20-dioxo-3,6,9,24,27,30-hexaoxa-12,14,19,21-tetraazadotriacontane-1,32-diyl)bis(3-(6,8-dichloro-2-methyl-1,2,3,4-tetrahydroisoquinolin-4-yl)benzenesulfonamide)], the “rat NHE-3 Average pIC50” value at rat NHE-3 (setting [2]) is on record as over 7. Also, in series [1], the AUC is under 5 ng·h/mL and the Cmax was under 5 ng/mL.

On to `C/C(=C\c1cc(F)c(Oc2ccc(S(=O)(=O)NCCOCCOCCOCCOCCOCCOCCNC(=O)C(O)C(O)C(=O)NCCOCCOCCOCCOCCOCCOCCNS(=O)(=O)c3ccc(Oc4c(F)cc(/C=C(\C)C(=O)N=C(N)N)cc4F)cc3)cc2)c(F)c1)C(=O)N=C(N)N` (stereo not shown) [Example 104, N1,N4-bis(20-(4-(4-((E)-3-(diaminomethyleneamino)-2-methyl-3-oxoprop-1-enyl)-2,6-difluorophenoxy)phenylsulfonamido)-3,6,9,12,15,18-hexaoxaicosyl)-2,3-dihydroxysuccinamide], for which the “rat NHE-3 Average pIC50” value on rat NHE-3 (setting [2]) is on record as 6 to 7.

As to `CN1Cc2c(Cl)cc(Cl)cc2C(c2cccc(S(=O)(=O)NCCOCCOCCOCCNC(=O)CCOCCOCCOCCOCCOCCOCCOCCOCCOCCC(=O)NCCOCCOCCOCCNS(=O)(=O)c3cccc(C4CN(C)Cc5c(Cl)cc(Cl)cc54)c3)c2)C1` (stereo not shown) [Example 97, N1,N31-bis(2-(2-(2-(2-(3-(6,8-dichloro-2-methyl-1,2,3,4-tetrahydroisoquinolin-4-yl)phenylsulfonamido)ethoxy)ethoxy)ethoxy)ethyl)-4,7,10,13,16,19,22,25,28-nonaoxahentriacontane-1,31-diamide], the “rat NHE-3 Average pIC50” value at rat NHE-3 (setting [2]) was 6 to 7.

`CN1Cc2c(Cl)cc(Cl)cc2C(c2cccc(S(=O)(=O)NCCOCCOCCOCCNC(=O)NCCOCCOCCOCCNS(=O)(=O)c3cccc(C4CN(C)Cc5c(Cl)cc(Cl)cc54)c3)c2)C1` (stereo not shown) [Example 100, N,N′-(13-oxo-3,6,9,17,20,23-hexaoxa-12,14-diazapentacosane-1,25-diyl)bis(3-(6,8-dichloro-2-methyl-1,2,3,4-tetrahydroisoquinolin-4-yl)benzenesulfonamide)]: the “rat NHE-3 Average pIC50” value at rat NHE-3 (setting [2]) is 6 to 7.

In the case of `CN1Cc2c(Cl)cc(Cl)cc2C(c2cccc(S(=O)(=O)NCCOCCOCCOCCN)c2)C1` (stereo not shown) [Example 28, N-(2-(2-(2-(2-aminoethoxy)ethoxy)ethoxy)ethyl)-3-(6,8-dichloro-2-methyl-1,2,3,4-tetrahydroisoquinolin-4-yl)benzenesulfonamide], the “rat NHE-3 Average pIC50” value at rat NHE-3 (setting [2]) is recorded as 6 to 7.

Values taken from patent US20190374533A1, “COMPOUNDS AND METHODS FOR INHIBITING NHE-MEDIATED ANTIPORT IN THE TREATMENT OF DISORDERS ASSOCIATED WITH FLUID RETENTION OR SALT OVERLOAD AND GASTROINTESTINAL TRACT DISORDERS” (Ardelyx, Inc., priority 2008, published 2019).
